Laboratory results taken from patent publication US12534762B2, “Treating atopic dermatitis by targeting the WNT pathway” (Children's Medical Center Corporation, priority 2018, dated 2026).

System: Xenopus embryos
Assay: Dorso-animal morpholino injection, phenotype scored at stage 35
Assay type: in vivo, Xenopus laevis
Details: FIG. 6 Panel D
Description: Xenopus embryo manipulations. Procedures for embryo manipulation, reverse transcription PCR and in situ hybridization were performed as previously described (Zhang et al., 2012, Cell, 149:1565-1577). The full length Xenopus laevis Tmem79 cDNA was used to make in situ sense and antisense probes.
mRNA and Morpholino injection. For animal cap assays, indicated mRNAs (Tmem79, 100 and 200 pg; Xwnt8, 10 pg; β-catenin 50 pg; Xnr1, 250 pg; BMP4, 100 pg) were injected into the animal pole at 4-cell stage, and animal caps were dissected at stage 9 (in the case of Xwnt8, Xnr1, BMP4) or at stage 8.5 and treated with recombinant proteins (bFGF, 100 ng/ml; hShh, 1.5 ng/mL) until stage 10 before RT-PCR. For Neural induction assay the MO (20 ng) for Tmem79, Usp8 or β-catenin was injected into the animal pole at 4-cell stage, and animal caps were dissected at stage 9 and treated with recombinant protein Noggin (500 ng/mL) until stage 18 before RT-PCR. To examine Tmem79 and Usp8 MOs specificity, […] of mRNA of Xenopus Tmem79, mouse Tmem79, Xenopus Usp8 or xmutUsp8 (Xenopus Usp8 mutated for mismatches with the MO) were injected with a control MO, Tmem79 MO or Usp8 MO (20 ng) into the animal pole at the 2-cell stage and cultured til stage 10 for Western blotting. To knockdown the endogenous xTmem79 or xUsp8, 20 ng of control MO, Tmem79 MO or Usp8 MO were injected into two dorso-animal blastomeres at the 8-cell stage and the phenotype was scored at stage 35. To rescue the Tmem79 MO phenotype, […] of mTmem 79, 20 ng of Usp8 MO or 10 ng of β-catenin MO was injected together with Tmem79 MO (20 ng). RT-PCR primers and Morpholinos. RT-PCT primer for Xenopus laevis Tmem 79: Forward, 5′-[…]-3′ (SEQ ID NO: 22); Reverse, 5′-[…]-3′ (SEQ ID NO: 23). The MO sequences: Tmem79.S MO, 5′-[…]-3′ (SEQ ID NO: 24); Tmem79.L MO, 5′-[…]-3′ (SEQ ID NO: 25); Usp8 MO, 5′-[…]-3′ ((SEQ ID NO: 26; Gene Tools, LLC). Phylogeny analysis and protein sequences. TMEM79 protein sequences were derived from full-length NCBI accessions and genomic sequences. Human (Homo sapiens): NP_115699.1 (SEQ ID NO: 27), Chimpanzee (Pan troglodytes): XP_001165258.1 (SEQ ID NO: 28), Rat (Rattus norvegicus): NP_001029068.1 (SEQ ID NO: 29), Mouse (Mus musculus): NP_077208.1 (SEQ ID NO: 30), Chicken (Gallus gallus): XP_024999333.1 (SEQ ID NO: 31), Frog (Xenopus laevis): XP_018089022.1 (SEQ ID NO: 32), Zebra fish (Danio rerio): XP_009290676.1 (SEQ ID NO: 33) and Coelacanth (Latimeria chalumnae): XP_014351966.1 (SEQ ID NO: 34). The Protein sequences encoded by mouse MAPEG family (Membrane-Associated Proteins in Eicosanoid and Glutathione metabolism, pfam01124) members protein sequences were derived from full-length NCBI accessions and genomic sequences. […]

Usp8 MO: morpholino against Xenopus Usp8, SEQ ID NO: 26 (antisense GCTGCAAATTCTCCTCTCTTATCAA; all phosphorodiamidate morpholino (PMO); listed as Xenopus laevis)
Enlarged Head: 93.2 % of embryos | Moderate Deficiency (anterior deficiency): 0.0 % of embryos | Severe Deficiency (anterior deficiency): 0.0 % of embryos | Normal (dorso-animal injection): 6.8 % of embryos
